Data taken from ChEMBL document CHEMBL5728314, “Chiral N-acyl-5,6,7(8-substituted)-tetrahydro-[1,2,4]triazolo[4,3-a]pyrazines as selective NK-3 receptor antagonists, pharmaceutical composition, methods for use in NK-3 receptor mediated disorders and chiral synthesis thereof” (2021).

Biological target: T1, Neuromedin-K receptor (Homo sapiens, UniProt P29371)
T1 sequence (P29371 whole entry): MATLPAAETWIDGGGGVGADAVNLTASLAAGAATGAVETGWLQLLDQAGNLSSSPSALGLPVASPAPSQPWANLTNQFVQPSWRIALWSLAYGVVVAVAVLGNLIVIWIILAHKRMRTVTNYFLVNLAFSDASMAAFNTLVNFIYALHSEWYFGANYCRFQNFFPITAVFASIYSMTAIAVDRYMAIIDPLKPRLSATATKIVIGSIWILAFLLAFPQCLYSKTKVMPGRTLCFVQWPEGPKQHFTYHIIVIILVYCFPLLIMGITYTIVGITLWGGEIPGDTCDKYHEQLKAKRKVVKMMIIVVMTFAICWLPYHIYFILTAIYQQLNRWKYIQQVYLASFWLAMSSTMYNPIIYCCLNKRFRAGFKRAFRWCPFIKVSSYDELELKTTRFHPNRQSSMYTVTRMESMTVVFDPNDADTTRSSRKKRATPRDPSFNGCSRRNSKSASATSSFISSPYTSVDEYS
Experiment: Binding Competition Assay: NK3: The ability of compounds of the invention to inhibit the binding of the NK-3 receptor selective antagonist 3H-SB222200 was assessed by an in vitro radioligand binding assay. Membranes were prepared from Chinese hamster ovary recombinant cells stably expressing the human NK3 receptor. The membranes were incubated with 5 nM 3H-SB222200 (ARC) in a HEPES 25 mM/NaCl 0.1M/CaCl2 1 mM/MgCl2 5 Mm/BSA 0.5%/Saponin 10 μg/ml buffer at pH 7.4 and various concentrations of compounds of the invention. The amount of 3H-SB222200 bound to the receptor was determined after filtration by the quantification of membrane associated radioactivity using the TopCount-NXT reader (Packard).

In the case of Cc1coc(-c2nnc3n2CCN[C@@H]3C)n1, the Ki is reported as 0.051 µM.
